Inhibition data for 44 compounds are collected here from patent publication US12428415B2, “Matriptase 2 inhibitors and uses thereof” (Disc Medicine, Inc., priority 2018, dated 2025).

The first assay deals with T1, Human Recombinant Matriptase 2 (Homo sapiens, UniProt Q8IU80).
T1 construct: purchased Enzo Life Sciences (an in-house preparation was also used) ALX-201-752-1
T1 sequence (Q8IU80 1-811): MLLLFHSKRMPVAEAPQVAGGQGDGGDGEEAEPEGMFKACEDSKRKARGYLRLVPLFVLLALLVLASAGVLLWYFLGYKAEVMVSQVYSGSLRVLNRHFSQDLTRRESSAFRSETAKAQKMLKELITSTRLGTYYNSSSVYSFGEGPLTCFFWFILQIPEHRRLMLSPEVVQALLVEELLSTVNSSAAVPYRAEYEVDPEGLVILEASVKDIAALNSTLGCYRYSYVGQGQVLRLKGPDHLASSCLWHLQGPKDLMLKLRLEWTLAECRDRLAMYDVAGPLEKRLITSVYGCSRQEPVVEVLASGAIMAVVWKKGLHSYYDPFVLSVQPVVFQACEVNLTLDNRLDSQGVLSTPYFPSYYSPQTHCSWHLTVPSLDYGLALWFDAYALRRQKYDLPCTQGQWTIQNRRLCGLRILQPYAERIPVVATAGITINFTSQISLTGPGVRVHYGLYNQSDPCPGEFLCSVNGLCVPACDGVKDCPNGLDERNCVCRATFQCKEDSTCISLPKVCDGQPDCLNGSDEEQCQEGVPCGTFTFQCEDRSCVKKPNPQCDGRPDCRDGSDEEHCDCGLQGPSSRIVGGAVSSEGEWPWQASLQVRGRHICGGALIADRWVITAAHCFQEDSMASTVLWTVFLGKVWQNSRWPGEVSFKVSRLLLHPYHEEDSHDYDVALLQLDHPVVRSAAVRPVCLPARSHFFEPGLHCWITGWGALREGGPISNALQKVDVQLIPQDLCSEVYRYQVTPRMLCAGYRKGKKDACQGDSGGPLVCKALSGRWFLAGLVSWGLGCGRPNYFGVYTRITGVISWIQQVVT
The experiment in a line: Matriptase 2 fluorescence based inhibition assay, Method A (100 mM TRIS pH 9, 1 mg/mL BSA). The class given is biochemical. The settings on record: 1 uM compound; Assay Used = A; read-out: Mar-2 % inhibition at 1 uM. The method, boiled down:
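At 25° C in 100 mM TRIS pH 9 with 1 mg/mL BSA and 1% DMSO, compounds were preincubated 30 min with 7 nM commercial or 15 nM in-house protein before adding 100 μM Boc-Gln-Ala-Arg-7-amido-4-methyl coumarin. Fluorescence at 360/480 nm after 60 min; single points at 1 and 10 μM, IC50 by variable-slope nonlinear regression.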
In general, inhibition refers to the percentage by which the read-out fell short of the control. As for `N=C(N)c1ccc2cc(C(=O)NCC3CCNCC3)n(Cc3ccc4ccccc4c3)c2c1` [Compound I-406, 6-carbamimidoyl-1-(naphthalen-2-ylmethyl)-N-(piperidin-4-ylmethyl)-1H-indole-2-carboxamide], the inhibition at 1 µM lay within 25 to 50%.

The assay is the same for the next values; noted with them: 1 uM; Assay Used A; read-out: Mar-2 % inhibition at 1 uM.
With `N=C(N)c1ccc2cc(C(=O)Nc3ccc(N4CC[C@@H](F)C4)cc3)n(Cc3ccc(C(N)=O)cc3)c2c1` [Compound I-127], the inhibition at 1 µM was in the range of 25 to 50%. The same measure, in the same setting: the result for `N=C(N)c1ccc2cc(C(=O)Nc3cccc(N4CCSCC4)c3)n(Cc3ccc(C(N)=O)cc3)c2c1` [Compound I-133] reads 0 to 25%. `N=C(N)c1ccc2cc(C(=O)NC3CCC(F)(F)CC3)n(CCS(=O)(=O)c3ccccc3)c2c1` [Compound I-48]: the inhibition at 1 µM lay in the range of 25 to 50%. The same measure, in the same setting: the result for `CCOC(=O)NC(=N)c1ccc2cc(C(=O)Nc3cccc(N4CCCC4)c3)n(Cc3ccc(C(N)=O)cc3)c2c1` [Compound I-120] reads 0 to 25%; that for `N=C(N)c1ccc2cc(C(=O)NCC3CCCCC3)n(Cc3ccc(C(N)=O)cc3)c2c1` [Compound I-191], 0 to 25%; that for `N=C(N)c1ccc2cc(C(=O)N[C@H]3CC[C@H](N)CC3)n(CCc3ccccc3)c2c1` [Compound I-27], 50 to 75%. For the compound `N=C(N)c1ccc2cc(C(=O)Nc3ccc(CN4CCCC4)cc3)n(Cc3ccc(C(N)=O)cc3)c2c1` [Compound I-114], the inhibition at 1 µM lay within 25 to 50%. Same read-out and setting: then `N=C(N)c1ccc2cc(C(=O)NCc3cccc(C(F)(F)F)c3)n(Cc3ccc(C(N)=O)cc3)c2c1` [Compound I-83], with 0 to 25%; and `N=C(N)c1ccc2cc(C(=O)NCC3CCCCC3)n(Cc3ccc(OC(F)(F)F)cc3)c2c1` [Compound I-12], with 0 to 25%; and `N=C(N)c1ccc2cc(C(=O)Nc3cccc(OCC4CC4)c3)n(Cc3ccc(C(N)=O)cc3)c2c1` [Compound I-121], with 0 to 25%. Consider `N=C(N)c1ccc2cc(C(=O)Nc3cccc(-n4ccc(C(F)(F)F)n4)c3)n(Cc3ccc(C(N)=O)cc3)c2c1` [Compound I-166], for which the inhibition at 1 µM lay within 0 to 25%. For the compound `N=C(N)c1ccc2cc(C(=O)Nc3ccc(C(=O)N4CCC4)cc3)n(Cc3ccc(C(N)=O)cc3)c2c1` [Compound I-92], the inhibition at 1 µM lay in the range of 0 to 25%.

On to `CS(=O)(=O)c1cccc(NC(=O)c2cc3ccc(C(=N)N)cc3n2Cc2ccc(C(N)=O)cc2)c1` [Compound I-150], for which the inhibition at 1 µM is 0 to 25%.

As to `CC(C)c1ccc(Cn2c(C(=O)N[C@H]3CC=CCC3)cc3ccc(C(=N)N)cc32)cc1` [Compound I-14], the inhibition at 1 µM was 0 to 25%. Consider `N=C(N)c1ccc2cc(C(=O)NCC3CCCCC3)n(CCS(=O)(=O)c3ccccc3)c2c1` [Compound I-49], for which the inhibition at 1 µM lay within 0 to 25%. The same measure, in the same setting: the result for `N=C(N)c1ccc2c(N)c(C(=O)N[C@H]3CC[C@H](N)CC3)n(CCS(=O)(=O)c3ccccc3)c2c1` [Compound I-56, 3-Amino-N-((1r,4r)-4-aminocyclohexyl)-6-carbamimidoyl-1-(2-(phenylsulfonyl)ethyl)-1H-indole-2-carboxamide] reads 25 to 50%; that for `N=C(N)c1ccc2cc(C(=O)Nc3cccc(-n4cccc4)c3)n(Cc3ccc(C(N)=O)cc3)c2c1` [Compound I-154], 0 to 25%; that for `N=C(N)c1ccc2cc(C(=O)Nc3cccc(-c4nccs4)c3)n(Cc3ccc(C(N)=O)cc3)c2c1` [Compound I-144], 0 to 25%.

For the compound `CO[C@H]1CCN(c2cccc(NC(=O)c3cc4ccc(C(=N)N)cc4n3Cc3ccc(C(N)=O)cc3)c2)C1` [Compound I-123], the inhibition at 1 µM is 0 to 25%.

Still in this assay, the particulars now being: at 1 uM; Assay Used = A; read-out: Mar-2 % inhibition at 1 uM.
For `CC(C)(O)CNC(=O)c1cc2ccc(C(=N)N)cc2n1Cc1ccc(C(N)=O)cc1` [Compound I-208], the inhibition at 1 µM lay in the range of 0 to 25%. Still for that read-out and setting: then `N=C(N)c1ccc2cc(C(=O)N3CC[C@@H](N)C3)n(CCc3ccccc3)c2c1` [Compound I-300], with 25 to 50%; and `N=C(N)c1ccc2cc(C(=O)N3CCC(CCN)CC3)n(CCc3ccc(F)cc3)c2c1` [Compound I-301], with 25 to 50%. Turning to `CC(C)c1ccc(Cn2c(C(=O)N3CCC(F)(F)CC3)cc3ccc(C(=N)N)cc32)cc1` [Compound I-296], the inhibition at 1 µM was in the range of 0 to 25%. Still for that read-out and setting: the result for `N=C(N)c1ccc2cc(C(=O)N3CCCC(F)(F)C3)n(Cc3ccc(Oc4ccccc4)cc3)c2c1` [Compound I-315] reads 0 to 25%; that for `N=C(N)c1ccc2cc(C(=O)N3CCC(CF)CC3)n(Cc3ccc(-c4ccccc4)cc3)c2c1` [Compound I-308], 0 to 25%.

In the case of `N=C(N)c1ccc2cc(C(=O)N3CCC(F)CC3)n(Cc3ccc(C(N)=O)cc3)c2c1` [Compound I-326], the inhibition at 1 µM was in the range of 0 to 25%. On the same count and under the same terms, the result for `N=C(N)c1ccc2cc(C(=O)N3CCC(CCCC(N)=O)CC3)n(Cc3ccc(C(F)(F)F)cc3)c2c1` [Compound I-322] reads 0 to 25%.

For `N=C(N)c1ccc2c(Br)c(C(=O)N[C@H]3CC[C@H](N)CC3)n(Cc3ccc(Oc4ccccc4)cc3)c2c1` [Compound I-250], the inhibition at 1 µM was in the range of 25 to 50%. On the same count and under the same terms, the result for `NCCCC(=O)Nc1ccc(Cn2c(C(=O)N3CCC(CCN)CC3)cc3ccc(/C(N)=N/O)cc32)cc1` [Compound I-384] reads 25 to 50%. The same measure, in the same setting: then `CC(C)CCn1c(C(=O)N2CC[C@H](F)C2)cc2ccc(C(=N)N)cc21` [Compound I-272], with 0 to 25%; and `CCc1ccc(-c2cccc(Cn3c(C(=O)NC4CCC(N)CC4)cc4ccc(C(=N)N)cc43)c2)cc1` (centres unmarked) [Compound I-238], with 25 to 50%; and `N=C(N)c1ccc2cc(C(=O)N3CCC(F)CC3)n(Cc3ccc(NC(=O)CCN)cc3)c2c1` [Compound I-373], with 0 to 25%. The same measure, in the same setting: the result for `N=C(N)c1ccc2c(N)c(C(=O)N3CCC4CCCCC4C3)n(CCS(=O)(=O)c3ccccc3)c2c1` (centres unmarked) [Compound I-351] reads 0 to 25%; that for `N=C(N)c1ccc2cc(C(=O)N3CCC(F)CC3)n(Cc3ccc(C(=O)NCCN)cc3)c2c1` [Compound I-393], 0 to 25%. As to `N=C(N)c1ccc2cc(C(=O)N[C@H]3CCc4ccccc43)n(Cc3ccc(C(N)=O)cc3)c2c1` [Compound I-202], the inhibition at 1 µM was 0 to 25%. As to `CC1CCC(NC(=O)c2c(Cl)c3ccc(C(=N)N)cc3n2Cc2ccc(C(N)=O)cc2)CC1` (centres unmarked) [Compound I-214], the inhibition at 1 µM is 0 to 25%. `N=C(N)c1ccc2cc(C(=O)NC3CCC(F)(F)CC3)n(Cc3ccc(NC(=O)CCN)cc3)c2c1` [I- s263]: the inhibition at 1 µM lay in the range of 0 to 25%.

Consider `NCCCC(=O)Nc1cccc(Cn2c(C(=O)N3CCC(CCN)CC3)cc3ccc(/C(N)=N/O)cc32)c1` [Compound I-382], for which the inhibition at 1 µM lay within 0 to 25%. As for `N=C(N)c1ccc2cc(C(=O)NC34CC5CC(CC(C5)C3)C4)n(Cc3ccc(Oc4ccc(F)cc4)cc3)c2c1` [Compound I-245], the inhibition at 1 µM fell in the range of 25 to 50%. On the same count and under the same terms, then `N=C(N)c1ccc2cc(C(=O)N3CCC[C@@H](CF)C3)n(Cc3cccc(C(N)=O)c3)c2c1` [Compound I-325], with 0 to 25%; and `N=C(N)c1ccc2cc(C(=O)N3CCC(F)(F)C3)n(CCS(=O)(=O)c3ccccc3)c2c1` [Compound I-342], with 0 to 25%; and `N=C(N)NCCC1CCN(C(=O)c2cc3ccc(C(=N)N)cc3n2Cc2ccc(-c3ccccc3)cc2)CC1` [Compound I-361], with 0 to 25%. The same measure, in the same setting: the result for `CC(C)CCn1c(C(=O)N2CCC(F)(F)CC2)cc2ccc(C(=N)N)cc21` [Compound I-271] reads 0 to 25%.
